Source: US8076487B2, “Pyridone derivative and herbicide” (Kumiai Chemical Industry Co., Ltd., priority 2006, dated 2011)

Experiments:
Type in all cases: in vivo
[1] = test system: Japanese bulrush (Scirpus juncoides Roxb.); experiment: Test Example 1: herbicidal effect by soil application to paddy field; conditions: for herbicidal effect (index), Scirpus juncoides Roxb.: soil application to paddy field, rated by standard of Table 34; for herbicidal effect, Scirpus juncoides Roxb.: paddy field soil application, active ingredient 1,000 g per 1 hectare, wettable powder added dropwise to water surface the day after sowing, examined on the 21st day after application
Summary of the method: (§1)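 Plants were sown in flooded (3 cm) paddy soil and evaluated for herbicidal effect 21 days after soil application in a greenhouse.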

[2] = test system: heartshape false pickerelweed (Monochoria vaginalis (Burm.f.) C.Presl); experiment: as above; conditions: for herbicidal effect (index), Monochoria vaginalis (Burm.f.) C.Presl: soil application to paddy field, rated by standard of Table 34; for herbicidal effect, Monochoria vaginalis (Burm. f.) C. Presl: paddy field soil application, active ingredient 1,000 g per 1 hectare, wettable powder added dropwise to water surface the day after sowing, examined on the 21st day after application
Summary of the method: as §1

[3] = test system: early watergrass (Echinochloa oryzicola Vasing); experiment: as above; conditions: for herbicidal effect (index), Echinochloa oryzicola Vasing: soil application to paddy field, rated by standard of Table 34; for herbicidal effect, Echinochloa oryzicola Vasing: paddy field soil application, active ingredient 1,000 g per 1 hectare, wettable powder added dropwise to water surface the day after sowing, examined on the 21st day after application
Summary of the method: as §1

[4] = test system: green foxtail (Setaria viridis (L.) P. Beauv.); experiment: Test Example 2: herbicidal effect by soil application to upland field; conditions: soil surface spray, upland field soil, 1,000 g active ingredient per hectare, 21st day after application
Protocol: (§2) [table] Test Example 2 Test on Herbicidal Effect by Soil Application to Upland field In a 80 cm2 plastic pot, field soil was filled. Seeds of barnyardgrass (Echinochloa crus-galli (L.) P. Beauv. var. crus-galli), green foxtail (Setaria viridis (L.) P. Beauv.), velvetleaf (Abutilon theophrasti medicus), and slender amaranth (Amaranthus viridis L.) were sown and covered with soils. The wettable powder prepared according to Formulation Example 1 was diluted in water and a 1,000 liter equivalent amount per 1 hectare so that the active ingredient becomes 1,000 g per 1 hectare was uniformly sprayed on a soil surface using a small sprayer. Then, on the 21st day after the application to the plants grew in a greenhouse, the herbicidal effect was examined in accordance with a standard shown in Table 34.

[5] = test system: slender amaranth (Amaranthus viridis L.); experiment: as above; conditions: soil surface spray, upland field soil, 1,000 g active ingredient per hectare, 21st day after application
Protocol: as §2

[6] = test system: velvetleaf (Abutilon theophrasti medicus); experiment: as above; conditions: soil surface spray, upland field soil, 1,000 g active ingredient per hectare, 21st day after application
Protocol: as §2

[7] = test system: barnyardgrass (Echinochloa crus-galli (L.) P. Beauv. var. crus-galli); experiment: as above; conditions: soil surface spray, upland field soil, 1,000 g active ingredient per hectare, 21st day after application
Protocol: as §2

| Structure (SMILES) | herbicidal effect (index), Scirpus juncoides Roxb. [1] | herbicidal effect (index), Monochoria vaginalis (Burm.f.) C.Presl [2] | herbicidal effect (index), Echinochloa oryzicola Vasing [3] | herbicidal effect (index), Green Foxtail [4] | herbicidal effect (index), Slender Amaranth [5] | herbicidal effect (index), Velvetleaf [6] | herbicidal effect (index), Barnyardgrass [7] | herbicidal effect, Scirpus juncoides Roxb. [1] | herbicidal effect, Monochoria vaginalis (Burm. f.) C. Presl [2] | herbicidal effect, Echinochloa oryzicola Vasing [3] |
| --- | --- | --- | --- | --- | --- | --- | --- | --- | --- | --- |
| CCCn1c(C(F)(F)F)ccc(C(=O)C(C#N)=C(O)C2CC2)c1=O [V-21] | 5 (90% or more of herbicidal effect and crop phytotoxicity) | 5 (90% or more of herbicidal effect and crop phytotoxicity) | 5 (90% or more of herbicidal effect and crop phytotoxicity) | 5 (90% or more of herbicidal effect and crop phytotoxicity) | 5 (90% or more of herbicidal effect and crop phytotoxicity) | 5 (90% or more of herbicidal effect and crop phytotoxicity) | 5 (90% or more of herbicidal effect and crop phytotoxicity) | – | – | – |
| CCCS(=O)(=O)Oc1c(C(=O)c2ccc(C(F)(F)F)n(-c3ccc(F)c(F)c3)c2=O)cnn1C [IV-87] | – | – | – | 5 (90% or more of herbicidal effect and crop phytotoxicity) | 5 (90% or more of herbicidal effect and crop phytotoxicity) | 5 (90% or more of herbicidal effect and crop phytotoxicity) | 5 (90% or more of herbicidal effect and crop phytotoxicity) | 5 (90% or more of herbicidal effect and crop phytotoxicity) | 5 (90% or more of herbicidal effect and crop phytotoxicity) | 5 (90% or more of herbicidal effect and crop phytotoxicity) |
| N#CC(C(=O)c1ccc(C(F)(F)F)n(-c2ccccc2)c1=O)=C(O)C1CC1 [V-23] | 5 (90% or more of herbicidal effect and crop phytotoxicity) | 5 (90% or more of herbicidal effect and crop phytotoxicity) | 5 (90% or more of herbicidal effect and crop phytotoxicity) | 5 (90% or more of herbicidal effect and crop phytotoxicity) | 5 (90% or more of herbicidal effect and crop phytotoxicity) | 5 (90% or more of herbicidal effect and crop phytotoxicity) | 5 (90% or more of herbicidal effect and crop phytotoxicity) | – | – | – |
| CN(c1ccccc1)n1c(C(F)(F)F)ccc(C(=O)C2=C(O)CCCC2=O)c1=O [I-182] | – | – | – | 4 (70 to less than 90% of herbicidal effect and crop phytotoxicity) | 5 (90% or more of herbicidal effect and crop phytotoxicity) | 5 (90% or more of herbicidal effect and crop phytotoxicity) | 5 (90% or more of herbicidal effect and crop phytotoxicity) | 5 (90% or more of herbicidal effect and crop phytotoxicity) | 5 (90% or more of herbicidal effect and crop phytotoxicity) | 5 (90% or more of herbicidal effect and crop phytotoxicity) |
| C#CCOc1c(C(=O)c2ccc(C(F)(F)F)n(C)c2=O)cnn1C [IV-189] | – | – | – | 4 (70 to less than 90% of herbicidal effect and crop phytotoxicity) | 5 (90% or more of herbicidal effect and crop phytotoxicity) | 4 (70 to less than 90% of herbicidal effect and crop phytotoxicity) | 5 (90% or more of herbicidal effect and crop phytotoxicity) | 5 (90% or more of herbicidal effect and crop phytotoxicity) | 5 (90% or more of herbicidal effect and crop phytotoxicity) | 5 (90% or more of herbicidal effect and crop phytotoxicity) |
| CCCS(=O)(=O)Oc1c(C(=O)c2ccc(C(F)(F)F)n(-c3ccc(F)c(COC)c3)c2=O)cnn1C [IV-94] | – | – | – | 4 (70 to less than 90% of herbicidal effect and crop phytotoxicity) | 5 (90% or more of herbicidal effect and crop phytotoxicity) | 5 (90% or more of herbicidal effect and crop phytotoxicity) | 5 (90% or more of herbicidal effect and crop phytotoxicity) | 5 (90% or more of herbicidal effect and crop phytotoxicity) | 5 (90% or more of herbicidal effect and crop phytotoxicity) | 5 (90% or more of herbicidal effect and crop phytotoxicity) |
| O=C1CCCC(O)=C1C(=O)c1ccc(C(F)(F)F)n(NCCCCl)c1=O [I-167] | – | – | – | 5 (90% or more of herbicidal effect and crop phytotoxicity) | 5 (90% or more of herbicidal effect and crop phytotoxicity) | 5 (90% or more of herbicidal effect and crop phytotoxicity) | 5 (90% or more of herbicidal effect and crop phytotoxicity) | 5 (90% or more of herbicidal effect and crop phytotoxicity) | 5 (90% or more of herbicidal effect and crop phytotoxicity) | 5 (90% or more of herbicidal effect and crop phytotoxicity) |
| Cn1ncc(C(=O)c2ccc(C(F)(F)F)n(CC3CCCO3)c2=O)c1OC(=O)c1ccccc1 (centres unmarked) [IV-131] | – | – | – | 3 (50 to less than 70% of herbicidal effect and crop phytotoxicity) | 5 (90% or more of herbicidal effect and crop phytotoxicity) | 4 (70 to less than 90% of herbicidal effect and crop phytotoxicity) | 4 (70 to less than 90% of herbicidal effect and crop phytotoxicity) | 5 (90% or more of herbicidal effect and crop phytotoxicity) | 5 (90% or more of herbicidal effect and crop phytotoxicity) | 5 (90% or more of herbicidal effect and crop phytotoxicity) |
| CCCS(=O)(=O)Oc1c(C(=O)c2ccc(C(F)(F)F)n(-c3ccc([N+](=O)[O-])cc3)c2=O)cnn1C [IV-68] | – | – | – | 4 (70 to less than 90% of herbicidal effect and crop phytotoxicity) | 5 (90% or more of herbicidal effect and crop phytotoxicity) | 5 (90% or more of herbicidal effect and crop phytotoxicity) | 4 (70 to less than 90% of herbicidal effect and crop phytotoxicity) | 4 (70 to less than 90% of herbicidal effect and crop phytotoxicity) | 5 (90% or more of herbicidal effect and crop phytotoxicity) | 4 (70 to less than 90% of herbicidal effect and crop phytotoxicity) |
| CCCS(=O)(=O)Oc1c(C(=O)c2ccc(C(F)(F)F)n(-c3cc(F)cc(F)c3)c2=O)c(C)nn1C [IV-82] | – | – | – | 4 (70 to less than 90% of herbicidal effect and crop phytotoxicity) | 4 (70 to less than 90% of herbicidal effect and crop phytotoxicity) | 5 (90% or more of herbicidal effect and crop phytotoxicity) | 5 (90% or more of herbicidal effect and crop phytotoxicity) | 3 (50 to less than 70% of herbicidal effect and crop phytotoxicity) | 5 (90% or more of herbicidal effect and crop phytotoxicity) | 5 (90% or more of herbicidal effect and crop phytotoxicity) |
| COn1c(C(F)(F)F)ccc(C(=O)C2=C(O)CCCC2=O)c1=O [I-202] | – | – | – | 5 (90% or more of herbicidal effect and crop phytotoxicity) | 5 (90% or more of herbicidal effect and crop phytotoxicity) | 5 (90% or more of herbicidal effect and crop phytotoxicity) | 5 (90% or more of herbicidal effect and crop phytotoxicity) | 5 (90% or more of herbicidal effect and crop phytotoxicity) | 5 (90% or more of herbicidal effect and crop phytotoxicity) | 5 (90% or more of herbicidal effect and crop phytotoxicity) |
